{"source": "patent US6630124B1", "about": "“Combination therapy with VIP antagonist” (Ramot-University Authority for Applied Research and …, priority 1998, dated 2003)", "format_in_all_cases": "cell-based", "key": {"[1]": {"system": "VIP receptor (glioblastoma cells)", "test": "cAMP in glioblastoma cells, basal and VIP-stimulated", "text": "(§1) The effects of VIP receptor antagonists on glioblastoma cell lines were investigated."}, "[2]": {"system": "cancer cells", "test": "MTS cell proliferation assay, inhibition of cell growth by SNH", "text": "For growth inhibition experiments, subconfluent adherent cells were washed with PBS and treated with trypsin/versene. The cells were pelleted and resuspended in medium to a final concentration of 75,000 cells/mL for NCI-H727. 50,000 cells/mL for LNCaP and HT-29 and 25000 cells/mL for CT-26. These different concentrations were used in order to avoid confluence in the wells at the end of the experiment and correspond to the different doubling times of the cell lines.\nOn day 0, cells suspensions […] were dispensed using a multi-channel pipet into the individual wells of a 96-well tissue culture plate (Nuncion, Nunc Brand Products). […] Cells were incubated for 24 hours in a humidified atmosphere of 95% air/5% CO2 at 37° C. before treatment. […]\nOn day 4, viable cell number was determined by a modified MTT assay i.e., MTS non-radioactive cell proliferation assay (Promega). Briefly, […] of freshly prepared MTS/PMS solution was added to each individual well and after 1-3 hours of incubation (the optimal time was determined for each cell line) absorbance at 490 nm was measured using a multiscan plate reader. Results were finally expressed as percentage of the control, which was obtained from the samples with no drug treatment. Dose-response curves were plotted using a Sigma-Plot software and statistically analyzed using Student test. […]"}, "[3]": {"system": "U-87 cells", "test": "U-87 colony formation in soft agar", "conditions": "in vitro", "text": "as §1"}, "[4]": {"system": "glioblastoma cell lines", "test": "MTT assay, glioblastoma proliferation", "text": "as §1"}, "[5]": {"system": "HT-29 human colon cancer", "test": "MTS cell proliferation assay, SNH and chemotherapy", "conditions": "HT-29, 4 hour treatment with SNH followed by a 24 hour treatment (FIG. 11)", "method": "NCI-H727 and LNCaP were grown in RPMI 1640 medium supplemented with 10% heat inactivated FCS, L-glutamine and antibiotics. HT-29 and CT-26 were grown in DMEM medium supplemented with 10% heat-inactivated FCS (fetal calf serum), L-glutamine and antibiotics. The cells were cultured in 5% CO2/95% air at […] and used during their exponential growth phase. Routinely, the cells which are adherent, were split when a subconfluent monolayer was formed. In different experiments, various concentration of FCS were used. For growth inhibition experiments, subconfluent adherent cells were washed with PBS and treated with trypsin/versene. The cells were pelleted and resuspended in medium to a final concentration of 75,000 cells/mL for NCI-H727. 50,000 cells/mL for LNCaP and HT-29 and 25000 cells/mL for CT-26. These different concentrations were used in order to avoid confluence in the wells at the end of the experiment and correspond to the different doubling times of the cell lines. […] On day 4, viable cell number was determined by a modified MTT assay i.e., MTS non-radioactive cell proliferation assay (Promega). […] Results were finally expressed as percentage of the control, which was obtained from the samples with no drug treatment. Dose-response curves were plotted using a Sigma-Plot software and statistically analyzed using Student test. […] On day 4 the number of viable cells was determined by MTS assay."}}, "note": "Where a SMILES comes first, the peptide text is derived from it. [ ]: non-standard residue; d: D form. The star is where a group is joined. Stearoyl = CCCCCCCCCCCCCCCCCC(=O)*; Nle = CCCC[C@H](N)C(=O)O"}
{"smiles": "CCCCCCCCCCCCCCCCCC(=O)N[C@@H](CCCCN)C(=O)N1CCC[C@H]1C(=O)N[C@@H](CCCNC(=N)N)C(=O)N[C@@H](CCCNC(=N)N)C(=O)N1CCC[C@H]1C(=O)N[C@@H](Cc1ccc(O)cc1)C(=O)N[C@H](C(=O)N[C@@H](CC(=O)O)C(=O)N[C@@H](CC(N)=O)C(=O)N[C@@H](Cc1ccc(O)cc1)C(=O)N[C@H](C(=O)N[C@@H](CCCNC(=N)N)C(=O)N[C@@H](CC(C)C)C(=O)N[C@@H](CCCNC(=N)N)C(=O)N[C@@H](CCCCN)C(=O)N[C@@H](CCC(N)=O)C(=O)N[C@@H](CCCC)C(=O)N[C@@H](C)C(=O)N[C@H](C(=O)N[C@@H](CCCCN)C(=O)N[C@@H](CCCCN)C(=O)N[C@@H](Cc1ccc(O)cc1)C(=O)N[C@@H](CC(C)C)C(=O)N[C@@H](CC(N)=O)C(=O)N[C@@H](CO)C(=O)N[C@H](C(=O)N[C@@H](CC(C)C)C(=O)N[C@@H](CC(N)=O)C(N)=O)[C@@H](C)CC)C(C)C)[C@@H](C)O)[C@@H](C)O", "note": "[SNH] (Stearoyl-KPRRPYTDNYTRLRKQ[Nle]AVKKYLNSILN-NH2)", "values": [{"measurement": "order of peptide potency, inhibition of VIP-stimulated cAMP", "setting": "[1]; 10 nM VIP", "value": "(SN)VIPhybrid>VIP hybrid >PTC4495"}, {"measurement": "effect on basal cAMP", "setting": "[1]; 1 μM", "value": "no effect"}, {"measurement": "inhibition of the increase in cAMP caused by 10 nM VIP", "setting": "[1]; 1 μM, 10 nM VIP", "value": "strongly inhibited"}, {"measurement": "inhibition of the growth of cancer cells", "setting": "[2]; 10 mM of SNH", "value": "significantly inhibits"}, {"measurement": "death of the cancer cells", "setting": "[2]; 8-10 mM SNH, FCS lower than 2%", "value": "complete or almost complete death"}, {"measurement": "relative potency at inhibiting U-87 colony formation", "setting": "[3]", "value": "more potent than VIP hybrid"}, {"measurement": "effect on basal proliferation", "setting": "[4]; 1 μM", "value": "little effect"}, {"measurement": "interaction with Taxol to inhibit growth", "setting": "[4]; 1 μM (SN)VIPhybrid with Taxol", "value": "synergistically interacted"}, {"measurement": "effect of the combination with a different schedule", "setting": "[5]", "value": "also effective"}]}
